Series [1] is described as follows: DRUGMATRIX: Nicotinic Acetylcholine radioligand binding (ligand: [125I] Epibatidine). It counts as cell membranes, Membrane. The conditions noted are these: imr-32; Not Active = under 50% inhibition at 10 µM.
The nature of series [2]: DRUGMATRIX: Serotonin (5-Hydroxytryptamine) 5-HT3 radioligand binding (ligand: [3H] GR-65630). It counts as cell membranes, Membrane. The conditions noted are these: hek293; Not Active = under 50% inhibition at 10 µM.
Another series addresses Cytochrome P450 2C19 (Homo sapiens, UniProt P33261). As to conditions: bti-tn-5b1-4.
The target in the next series is T1, Neutrophil elastase (Homo sapiens, UniProt P08246).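 Note: inhibition of neutrophil elastase enzyme activity, measured with a p-nitroanilide-linked peptide substrate; in other assays of this panel Not Active means under 50% inhibition at 10 µM.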
T1 sequence (P08246 whole entry): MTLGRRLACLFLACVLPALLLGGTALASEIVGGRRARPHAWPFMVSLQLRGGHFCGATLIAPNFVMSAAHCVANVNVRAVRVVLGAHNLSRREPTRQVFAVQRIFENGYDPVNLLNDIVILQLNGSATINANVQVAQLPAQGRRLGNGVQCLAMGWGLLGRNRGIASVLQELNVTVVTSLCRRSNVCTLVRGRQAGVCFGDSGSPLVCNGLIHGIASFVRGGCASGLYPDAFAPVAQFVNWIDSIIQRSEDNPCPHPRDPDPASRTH
Type of series: tissue-based.

A further series deals with T2, Adenosine receptor A3 (Homo sapiens, UniProt P0DMS8).
T2 sequence (P0DMS8 whole entry): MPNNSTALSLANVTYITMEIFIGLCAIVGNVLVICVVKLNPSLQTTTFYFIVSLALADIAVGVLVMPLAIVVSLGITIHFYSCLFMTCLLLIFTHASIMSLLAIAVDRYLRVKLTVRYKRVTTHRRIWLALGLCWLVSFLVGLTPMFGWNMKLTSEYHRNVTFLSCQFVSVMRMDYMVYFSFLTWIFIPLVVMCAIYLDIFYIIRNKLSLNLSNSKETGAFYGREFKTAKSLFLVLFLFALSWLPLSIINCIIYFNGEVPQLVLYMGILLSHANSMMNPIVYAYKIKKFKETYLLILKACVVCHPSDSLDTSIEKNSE
Type of series: cell membranes, CHO-K1, Membrane. As to conditions: cho-k1.

Series [3] has as its target Tyrosine-protein kinase Fyn (Homo sapiens, UniProt P06241). The series is described as follows: biochemical. Type of series: cell-based, Insect cells.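 Note: enzymatic inhibition of Fyn kinase activity measured with Poly(Glu:Tyr) as the phosphorylation substrate; in other assays of this panel Not Active means under 50% inhibition at 10 µM.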
The target of series [4] is Kappa-type opioid receptor (Homo sapiens, UniProt P41145). The series is described as follows: DRUGMATRIX: Opiate kappa (OP2, KOP) radioligand binding (ligand: [3H] Diprenorphine). It counts as cell membranes, HEK293, Membrane. As to conditions: hek293; Not Active = under 50% inhibition at 10 µM.
For another series, the target named is Glycine receptor (Rattus norvegicus, UniProt P22771+P24524+P07727+P20781). It counts as cell membranes, Wistar, Spinal cord, Membrane. Note: in other assays of this panel Not Active means under 50% inhibition at 10 µM.

Tyrosine-protein kinase Fyn, sequence (P06241 whole entry): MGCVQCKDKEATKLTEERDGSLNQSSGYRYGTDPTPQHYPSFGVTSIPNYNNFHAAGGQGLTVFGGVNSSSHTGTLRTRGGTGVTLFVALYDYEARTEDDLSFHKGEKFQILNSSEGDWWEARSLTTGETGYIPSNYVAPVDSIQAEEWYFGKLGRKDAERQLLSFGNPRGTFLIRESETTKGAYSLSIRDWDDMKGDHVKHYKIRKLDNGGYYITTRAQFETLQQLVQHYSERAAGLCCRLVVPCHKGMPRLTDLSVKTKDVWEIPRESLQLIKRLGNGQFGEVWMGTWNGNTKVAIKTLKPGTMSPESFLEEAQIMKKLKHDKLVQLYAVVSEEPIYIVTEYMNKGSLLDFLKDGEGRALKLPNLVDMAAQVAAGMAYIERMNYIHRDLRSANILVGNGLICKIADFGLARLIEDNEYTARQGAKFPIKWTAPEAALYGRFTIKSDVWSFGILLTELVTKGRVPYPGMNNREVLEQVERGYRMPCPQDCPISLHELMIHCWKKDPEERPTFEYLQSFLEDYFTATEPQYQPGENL
Cytochrome P450 2C19, sequence (P33261 whole entry): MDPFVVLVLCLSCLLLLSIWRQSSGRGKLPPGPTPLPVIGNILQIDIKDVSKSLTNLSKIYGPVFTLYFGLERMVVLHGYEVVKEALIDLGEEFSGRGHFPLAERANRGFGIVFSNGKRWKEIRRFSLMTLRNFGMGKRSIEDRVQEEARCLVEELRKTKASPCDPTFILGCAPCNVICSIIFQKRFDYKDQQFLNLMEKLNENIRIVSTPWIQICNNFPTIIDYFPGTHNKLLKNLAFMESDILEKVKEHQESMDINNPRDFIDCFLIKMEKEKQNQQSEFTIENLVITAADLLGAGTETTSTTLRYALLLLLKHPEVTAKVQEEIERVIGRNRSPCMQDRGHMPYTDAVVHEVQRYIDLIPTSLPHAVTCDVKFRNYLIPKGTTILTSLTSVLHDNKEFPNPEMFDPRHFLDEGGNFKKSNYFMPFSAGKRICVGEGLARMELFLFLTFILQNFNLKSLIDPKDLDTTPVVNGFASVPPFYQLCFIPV
Kappa-type opioid receptor, sequence (P41145 whole entry): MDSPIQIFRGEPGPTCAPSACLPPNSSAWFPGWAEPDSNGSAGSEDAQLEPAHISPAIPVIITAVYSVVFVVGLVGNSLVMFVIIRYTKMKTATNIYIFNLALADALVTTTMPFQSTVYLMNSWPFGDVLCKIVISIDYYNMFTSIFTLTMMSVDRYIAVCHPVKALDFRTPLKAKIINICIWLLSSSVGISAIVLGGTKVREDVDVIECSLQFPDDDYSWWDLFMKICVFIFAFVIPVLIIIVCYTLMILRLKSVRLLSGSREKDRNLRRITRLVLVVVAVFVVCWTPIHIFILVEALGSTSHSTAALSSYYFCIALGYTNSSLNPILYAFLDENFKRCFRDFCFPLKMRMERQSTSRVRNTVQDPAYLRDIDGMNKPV

In general, IC50 refers to the concentration at which inhibition is half-maximal. Consider `COc1nc(C)nc(Cl)c1NC1=NCCN1` [MOXONIDINE], for which the IC50 result (in series [1]; in series [2]; against Cytochrome P450 2C19; against Neutrophil elastase; on Adenosine receptor A3; in series [3] (insect cells)) was “Not Active” each time. Also, the IC50 result (in series [4]; at Glycine receptor) was “Not Active” throughout. For the same compound, the Ki entry (in series [1]; in series [2]; on Cytochrome P450 2C19) was “Not Active” throughout.

As for `C[C@@H]1CN(c2c(F)c(N)c3c(=O)c(C(=O)O)cn(C4CC4)c3c2F)C[C@H](C)N1` [SPARFLOXACIN], the IC50 result (in series [1]; in series [2]; against Cytochrome P450 2C19; at Neutrophil elastase; against Adenosine receptor A3; in series [3] (insect cells)) was “Not Active” each time. The IC50 result (in series [4]; against Glycine receptor) was “Not Active” throughout. For the same compound, the Ki entry (in series [1]; in series [2]; at Cytochrome P450 2C19) was “Not Active” in each case.

With `N[C@@H](Cc1ccc(O)c(O)c1)C(=O)O` [LEVODOPA], the concentration for half-maximal inhibition (IC50) entry was “Not Active” in series [1]; “Not Active” in series [2]; “Not Active” on Cytochrome P450 2C19; “Not Active” on Neutrophil elastase; “Not Active” against Adenosine receptor A3; 2150 nM in series [3] (read-out: IC50). Also, the IC50 entry (in series [4]; on Glycine receptor) was “Not Active” each time. Also, the Ki entry (in series [1]; in series [2]; at Cytochrome P450 2C19) was “Not Active” each time.

Source of the values: ChEMBL document CHEMBL1909046, “DrugMatrix in vitro pharmacology data”.
